Several values for one entry are separate records, joined by “and”; a condition that tells them apart may be missing. Identical values can stand only once. Inconclusive results and toxic doses are left out.
Tested on: P388 leukemia ip, CD2F1 mice, survival T/C
Assay: NCI In Vivo Anticancer Drug Screen. Data for tumor model P388 Leukemia (intraperitoneal) in CD2F1 (CDF1) mice
Details: endpoint: median survival time, higher = longer survival
In short: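 Mice carrying the transplanted tumor received test compound or vehicle. Survival was recorded in each group, and the value is the treated-group measurement divided by that of the vehicle-treated control group.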

[1] = dose: 50.0 mg/kg/injection, schedule: Q01DX005 (ip), vehicle: Klucel (hydroxypropylcellulose) (HPC)
[2] = dose: 100.0 mg/kg/injection, schedule: Q01DX005 (ip), vehicle: Klucel (hydroxypropylcellulose) (HPC)
[3] = dose: 200.0 mg/kg/injection, schedule: Q01DX005 (ip), vehicle: Klucel (hydroxypropylcellulose) (HPC)
[4] = dose: 100.0 mg/kg/injection, schedule: Q04DX002 (ip), vehicle: Klucel (hydroxypropylcellulose) (HPC)
[5] = dose: 200.0 mg/kg/injection, schedule: Q04DX002 (ip), vehicle: Klucel (hydroxypropylcellulose) (HPC)
[6] = dose: 400.0 mg/kg/injection, schedule: Q04DX002 (ip), vehicle: Klucel (hydroxypropylcellulose) (HPC)

**Q.** Which T/C (dose: 100.0 mg/kg/injection, schedule: Q04DX003 (ip), vehicle: saline) does the source give for `CC(C)C1(c2ccccc2)C(=O)c2ccccc2C1=O` here?
**A.** 102 % of control

**Q.** What about the T/C (dose: 200.0 mg/kg/injection, schedule: Q04DX003 (ip), vehicle: saline) of the same molecule?
**A.** 103 % of control

**Q.** What about the T/C (dose: 400.0 mg/kg/injection, schedule: Q04DX003 (ip), vehicle: saline) of the same molecule?
**A.** 105 % of control

**Q.** What does the source list for `CSc1ncnc2c1ncn2C1OC(CO)C(O)OC1O` (stereo not given)?
**A.** T/C (dose: 16.5 mg/kg/injection, schedule: Q01DX009 (ip), vehicle: saline with Tween-80): 122 % of control; T/C (dose: 50.0 mg/kg/injection, schedule: Q04DX003 (ip), vehicle: saline with Tween-80): 109 % of control; T/C (dose: 66.0 mg/kg/injection, schedule: Q04DX003 (ip), vehicle: saline with Tween-80): 112 % of control; T/C (dose: 100.0 mg/kg/injection, schedule: Q04DX003 (ip), vehicle: saline with Tween-80): 108 % of control

**Q.** For `CSC(=Nc1nc2ccc([N+](=O)[O-])cc2s1)SC`, which T/C (dose: 6.25 mg/kg/injection, schedule: Q01DX009 (ip), vehicle: Klucel (hydroxypropylcellulose) (HPC)) is on record?
**A.** 101 % of control

**Q.** And the T/C (dose: 12.5 mg/kg/injection, schedule: Q01DX009 (ip), vehicle: Klucel (hydroxypropylcellulose) (HPC))?
**A.** 103 % of control

**Q.** What about the T/C (dose: 25.0 mg/kg/injection, schedule: Q01DX009 (ip), vehicle: Klucel (hydroxypropylcellulose) (HPC)) of the same molecule?
**A.** 103 % of control

**Q.** Which results are given for `O=C(/C=C/c1ccccc1O)c1ccccc1`?
**A.** T/C (dose: 50.0 mg/kg/injection, schedule: Q01DX009 (ip), vehicle: saline with Tween-80): 97 % of control; T/C (dose: 100.0 mg/kg/injection, schedule: Q01DX009 (ip), vehicle: saline with Tween-80): 102 % of control; T/C (dose: 200.0 mg/kg/injection, schedule: Q01DX009 (ip), vehicle: saline with Tween-80): 108 % of control

**Q.** What does the source list for `Nc1ncnc2c1ccn2COCCOP(=O)(O)O`?
**A.** T/C (dose: 50.0 mg/kg/injection, schedule: Q01DX005 (ip), vehicle: distilled water + alcohol): 105 % of control; T/C (dose: 100.0 mg/kg/injection, schedule: Q01DX005 (ip), vehicle: distilled water + alcohol): 100 % of control; T/C (dose: 200.0 mg/kg/injection, schedule: Q01DX005 (ip), vehicle: distilled water + alcohol): 98 % of control

**Q.** With `CCOC1NC(=O)C(OCC)NC1=O` (stereo not given) as the molecule, how does the T/C [1] read?
**A.** 96 % of control

**Q.** And the T/C [2]?
**A.** 99 % of control

**Q.** What about the T/C [3] of the same molecule?
**A.** 97 % of control

**Q.** For `CC(C)=Cc1ccccc1C1(C)C(c2ccccc2)=C1c1ccccc1`, which T/C [4] is on record?
**A.** 100 % of control

**Q.** What about the T/C [5] of the same molecule?
**A.** 98 % of control

**Q.** And the T/C [6]?
**A.** 98 % of control

**Q.** What does the source list for `c1ccc(OP(Oc2ccccc2)(c2ccccc2)(c2ccccc2)c2ccccc2)cc1`?
**A.** T/C (dose: 50.0 mg/kg/injection, schedule: Q01DX009 (ip), vehicle: Klucel (hydroxypropylcellulose) (HPC)): 97 % of control; T/C (dose: 100.0 mg/kg/injection, schedule: Q01DX009 (ip), vehicle: Klucel (hydroxypropylcellulose) (HPC)): 99 % of control; T/C (dose: 200.0 mg/kg/injection, schedule: Q01DX009 (ip), vehicle: Klucel (hydroxypropylcellulose) (HPC)): 111 % of control

**Q.** With `Cc1cccc(CNc2cccc(C)n2)n1` as the molecule, how does the T/C (dose: 50.0 mg/kg/injection, schedule: Q01DX005 (ip), vehicle: saline) read?
**A.** 105 % of control

**Q.** And the T/C (dose: 100.0 mg/kg/injection, schedule: Q01DX005 (ip), vehicle: saline)?
**A.** 97 % of control

**Q.** For `COc1cc(C(O)(CCN2CCOCC2)c2ccc3c(c2)OCO3)cc(OC)c1OC` (stereo not given), which T/C [1] is on record?
**A.** 91 % of control

**Q.** And the T/C [2]?
**A.** 87 % of control

**Q.** How did the T/C (dose: 0.11 mg/kg/injection, schedule: Q01DX009 (ip), vehicle: Klucel (hydroxypropylcellulose) (HPC)) turn out when `NC(=O)C#CC(N)=O` was run?
**A.** 100 % of control and 103 % of control

**Q.** What about the T/C (dose: 0.22 mg/kg/injection, schedule: Q01DX009 (ip), vehicle: Klucel (hydroxypropylcellulose) (HPC)) of the same molecule?
**A.** 100 % of control and 119 % of control

**Q.** And the T/C (dose: 0.45 mg/kg/injection, schedule: Q01DX009 (ip), vehicle: Klucel (hydroxypropylcellulose) (HPC))?
**A.** 103 % of control and 119 % of control

**Q.** What about the T/C (dose: 0.9 mg/kg/injection, schedule: Q01DX009 (ip), vehicle: Klucel (hydroxypropylcellulose) (HPC)) of the same molecule?
**A.** 100 % of control and 114 % of control

**Q.** `COC(=O)c1cc(-c2cccnc2)[nH]c(=O)c1C#N` was tested. Which T/C (dose: 60.0 mg/kg/injection, schedule: Q01DX005 (ip), vehicle: saline) did it give?
**A.** 104 % of control

**Q.** And the T/C (dose: 120.0 mg/kg/injection, schedule: Q01DX005 (ip), vehicle: saline)?
**A.** 100 % of control

**Q.** Which results are given for `Cn1cccc1C1NC(=O)C(c2cccn2C)NC1=O` (stereo not given)?
**A.** T/C [1]: 95 % of control; T/C [2]: 96 % of control; T/C [3]: 92 % of control

**Q.** How did the T/C [4] turn out when `O=C1CSC(c2ccccc2Cl)N1c1n[nH]c(=S)s1` (stereo not given) was run?
**A.** 98 % of control

**Q.** What about the T/C [5] of the same molecule?
**A.** 100 % of control

**Q.** And the T/C [6]?
**A.** 97 % of control

**Q.** What does the source list for `CCC1(CC)C(=O)NC(=O)[N]([Sn]([CH2]C)([CH2]C)[N]2C(=O)NC(=O)C(CC)(CC)C2=O)C1=O`?
**A.** T/C (dose: 1.56 mg/kg/injection, schedule: Q01DX005 (ip), vehicle: Klucel (hydroxypropylcellulose) (HPC)): 90 % of control; T/C (dose: 3.12 mg/kg/injection, schedule: Q01DX005 (ip), vehicle: Klucel (hydroxypropylcellulose) (HPC)): 111 % of control and 117 % of control; T/C (dose: 6.25 mg/kg/injection, schedule: Q01DX005 (ip), vehicle: Klucel (hydroxypropylcellulose) (HPC)): 120 % of control; T/C (dose: 12.5 mg/kg/injection, schedule: Q01DX005 (ip), vehicle: Klucel (hydroxypropylcellulose) (HPC)): 111 % of control

**Q.** What does the source list for `[N-]=[N+]=CC(=O)CCC(N)C(=O)O` (stereo not given)?
**A.** T/C (dose: 0.04 mg/kg/injection, schedule: Q01DX009 (ip), vehicle: saline): 121 % of control; T/C (dose: 0.05 mg/kg/injection, schedule: Q01DX009 (ip), vehicle: saline): 158 % of control; T/C (dose: 0.08 mg/kg/injection, schedule: Q01DX005 (ip), vehicle: saline): 118 % of control; T/C (dose: 0.08 mg/kg/injection, schedule: Q01DX005 (iv), vehicle: saline): 109 % of control; T/C (dose: 0.08 mg/kg/injection, schedule: Q01DX009 (ip), vehicle: saline): 155 % of control; T/C (dose: 0.1 mg/kg/injection, schedule: Q01DX009 (ip), vehicle: saline): 178 % of control; T/C (dose: 0.15 mg/kg/injection, schedule: Q01DX005 (ip), vehicle: saline): 121 % of control; T/C (dose: 0.15 mg/kg/injection, schedule: Q01DX005 (iv), vehicle: saline): 110 % of control; T/C (dose: 0.15 mg/kg/injection, schedule: Q01DX009 (ip), vehicle: saline): 161 % of control and 171 % of control; T/C (dose: 0.2 mg/kg/injection, schedule: Q01DX009 (ip), vehicle: saline): 206 % of control; T/C (dose: 0.3 mg/kg/injection, schedule: Q01DX005 (iv), vehicle: saline): 112 % of control; T/C (dose: 0.3 mg/kg/injection, schedule: Q01DX009 (ip), vehicle: saline): 103 % of control and 105 % of control; T/C (dose: 0.4 mg/kg/injection, schedule: Q01DX009 (ip), vehicle: saline): 235 % of control; T/C (dose: 0.6 mg/kg/injection, schedule: Q01DX005 (ip), vehicle: saline): 153 % of control; T/C (dose: 0.6 mg/kg/injection, schedule: Q01DX009 (ip), vehicle: saline): 87 % of control; T/C (dose: 0.8 mg/kg/injection, schedule: Q01DX009 (ip), vehicle: saline): 94 % of control; T/C (dose: 1.0 mg/kg/injection, schedule: Q04DX003 (ip), vehicle: saline): 160 % of control; T/C (dose: 2.0 mg/kg/injection, schedule: Q04DX003 (ip), vehicle: saline): 158 % of control; T/C (dose: 4.0 mg/kg/injection, schedule: Q04DX003 (ip), vehicle: saline): 180 % of control; T/C (dose: 8.0 mg/kg/injection, schedule: Q04DX003 (ip), vehicle: saline): 202 % of control; T/C (dose: 16.0 mg/kg/injection, schedule: Q04DX003 (ip), vehicle: saline): 247 % of control; T/C (dose: 54.0 micrograms/kg/injection, schedule: Q01DX009 (ip), vehicle: saline): 151 % of control and 158 % of control; T/C (dose: 62.5 micrograms/kg/injection, schedule: Q01DX009 (ip), vehicle: saline): 160 % of control; T/C (dose: 90.0 micrograms/kg/injection, schedule: Q01DX009 (ip), vehicle: saline): 166 % of control and 182 % of control; T/C (dose: 125.0 micrograms/kg/injection, schedule: Q01DX009 (ip), vehicle: saline): 190 % of control; T/C (dose: 150.0 micrograms/kg/injection, schedule: Q01DX009 (ip), vehicle: saline): 188 % of control and 192 % of control; T/C (dose: 250.0 micrograms/kg/injection, schedule: Q01DX009 (ip), vehicle: saline): 109 % of control and 208 % of control and 236 % of control; T/C (dose: 417.0 micrograms/kg/injection, schedule: Q01DX009 (ip), vehicle: saline): 221 % of control and 90 % of control; T/C (dose: 500.0 micrograms/kg/injection, schedule: Q01DX009 (ip), vehicle: saline): 94 % of control

**Q.** `Cc1cccc(Nc2nc(C)nc3[nH]c(CC(C)C)c(C)c23)c1` was tested. Which T/C [1] did it give?
**A.** 91 % of control

**Q.** And the T/C [2]?
**A.** 96 % of control

**Q.** And the T/C [3]?
**A.** 98 % of control

**Q.** For `COc1cccc(/C=N\NC(=O)CNC(=O)Nc2ccc(Cl)c(Cl)c2)c1OC`, which T/C (dose: 15.0 mg/kg/injection, schedule: Q01DX005 (ip), vehicle: saline with Tween-80) is on record?
**A.** 91 % of control

**Q.** What about the T/C (dose: 30.0 mg/kg/injection, schedule: Q01DX005 (ip), vehicle: saline with Tween-80) of the same molecule?
**A.** 88 % of control

**Q.** What about the T/C (dose: 240.0 mg/kg/injection, schedule: Q01DX005 (ip), vehicle: saline with Tween-80) of the same molecule?
**A.** 95 % of control
